# PubChem BioAssay AID248 (DTP/NCI, 2004)
# Inconclusive results and toxic doses are left out. Square brackets hold non-standard residues; d marks the D form. Peptide text beside a SMILES is read from it. * marks the point of attachment. ξ: configuration not given here. Cbz = O=C(OCc1ccccc1)*; ξV = CC(C)C(N)C(=O)O
# Tested on: L1210 leukemia ip in BDF1 mice, survival T/C
# Assay: NCI In Vivo Anticancer Drug Screen. Data for tumor model L1210 Leukemia (intraperitoneal) in B6D2F1 (BDF1) mice
# Conditions: endpoint: mean survival time, higher = longer survival
# Method in brief: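 Each compound was tested against a transplantable tumor grown in mice. The endpoint was survival, with treated animals benchmarked against vehicle controls as a simple ratio.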
# [1] = dose: 100.0 mg/kg/injection, schedule: Q01DX009 (ip), vehicle: saline with Tween-80
# [2] = dose: 200.0 mg/kg/injection, schedule: Q01DX009 (ip), vehicle: saline with Tween-80
# [3] = dose: 100.0 mg/kg/injection, schedule: Q04DX003 (ip), vehicle: Klucel (hydroxypropylcellulose) (HPC)
# [4] = dose: 200.0 mg/kg/injection, schedule: Q04DX003 (ip), vehicle: Klucel (hydroxypropylcellulose) (HPC)
# [5] = dose: 400.0 mg/kg/injection, schedule: Q04DX003 (ip), vehicle: Klucel (hydroxypropylcellulose) (HPC)
smiles,measurement,setting,value
CSc1ccc(OC(=O)Nc2ccc(C)c([N+](=O)[O-])c2)cc1C,T/C,[1],89 % of control
same,T/C,[2],89 % of control
O=C(c1ccccc1)C1CCC1,T/C,"dose: 100.0 mg/kg/injection, schedule: Q01DX009 (ip), vehicle: Klucel (hydroxypropylcellulose) (HPC)",92 % of control
same,T/C,"dose: 100.0 mg/kg/injection, schedule: Q04DX003 (ip), vehicle: saline",101 % of control
same,T/C,"dose: 200.0 mg/kg/injection, schedule: Q01DX009 (ip), vehicle: Klucel (hydroxypropylcellulose) (HPC)",98 % of control
same,T/C,"dose: 200.0 mg/kg/injection, schedule: Q04DX003 (ip), vehicle: saline",97 % of control
same,T/C,"dose: 400.0 mg/kg/injection, schedule: Q01DX009 (ip), vehicle: Klucel (hydroxypropylcellulose) (HPC)",92 % of control
same,T/C,"dose: 400.0 mg/kg/injection, schedule: Q04DX003 (ip), vehicle: saline",97 % of control
COC(=O)C(NC(=O)CNC(=O)CNC(=O)OCc1ccccc1)C(C)C (stereo not drawn) (Cbz-Gly-Gly-[ξV]-OMe),T/C,[3],96 % of control
same,T/C,[4],99 % of control
same,T/C,[5],92 % of control
Cc1cc(C(c2ccccc2)c2ccccc2)cc(C)c1OCc1ccccc1,T/C,"dose: 50.0 mg/kg/injection, schedule: Q01DX001 (ip), vehicle: Klucel (hydroxypropylcellulose) (HPC)",93 % of control
same,T/C,"dose: 100.0 mg/kg/injection, schedule: Q01DX001 (ip), vehicle: Klucel (hydroxypropylcellulose) (HPC)",93 % of control
same,T/C,"dose: 200.0 mg/kg/injection, schedule: Q01DX001 (ip), vehicle: Klucel (hydroxypropylcellulose) (HPC)",90 % of control
Nc1ncnc2c1ncn2C1OC(COP(=O)(O)OCC(N)Cc2ccccc2)C(O)C1O (centres undefined),T/C,"dose: 100.0 mg/kg/injection, schedule: Q01DX005 (ip), vehicle: saline",87 % of control
same,T/C,"dose: 200.0 mg/kg/injection, schedule: Q01DX005 (ip), vehicle: saline",107 % of control
COc1ccc(NC(=O)N(CCCl)N=O)cc1,T/C,"dose: 0.12 mg/kg/injection, schedule: Q01DX Z (ip), vehicle: carboxymethylcellulose (CMC)",112 % of control
same,T/C,"dose: 1.25 mg/kg/injection, schedule: Q01DX Z (ip), vehicle: carboxymethylcellulose (CMC)",123 % of control
same,T/C,"dose: 4.4 mg/kg/injection, schedule: Q01DX015 (ip), vehicle: saline",200 % of control
same,T/C,"dose: 4.4 mg/kg/injection, schedule: Q01DX Z (ip), vehicle: carboxymethylcellulose (CMC)",192 % of control
same,T/C,"dose: 5.0 mg/kg/injection, schedule: Q01DX Z (ip), vehicle: carboxymethylcellulose (CMC)",160 % of control
same,T/C,"dose: 6.6 mg/kg/injection, schedule: Q01DX015 (ip), vehicle: saline",224 % of control
same,T/C,"dose: 6.6 mg/kg/injection, schedule: Q01DX Z (ip), vehicle: carboxymethylcellulose (CMC)",222 % of control
same,T/C,"dose: 9.9 mg/kg/injection, schedule: Q01DX001 (ip), vehicle: carboxymethylcellulose (CMC)",160 % of control
same,T/C,"dose: 10.0 mg/kg/injection, schedule: Q01DX015 (ip), vehicle: saline",196 % of control
same,T/C,"dose: 10.0 mg/kg/injection, schedule: Q01DX Z (ip), vehicle: carboxymethylcellulose (CMC)",187 % of control
same,T/C,"dose: 15.0 mg/kg/injection, schedule: Q01DX015 (ip), vehicle: saline",195 % of control
same,T/C,"dose: 15.0 mg/kg/injection, schedule: Q01DX Z (ip), vehicle: carboxymethylcellulose (CMC)",120 % of control
same,T/C,"dose: 19.8 mg/kg/injection, schedule: Q01DX001 (ip), vehicle: carboxymethylcellulose (CMC)",166 % of control
same,T/C,"dose: 20.0 mg/kg/injection, schedule: Q01DX Z (ip), vehicle: carboxymethylcellulose (CMC)",93 % of control
same,T/C,"dose: 39.6 mg/kg/injection, schedule: Q01DX001 (ip), vehicle: carboxymethylcellulose (CMC)",206 % of control
same,T/C,"dose: 60.0 mg/kg/injection, schedule: Q01DX001 (ip), vehicle: saline",158 % of control
same,T/C,"dose: 79.2 mg/kg/injection, schedule: Q01DX001 (ip), vehicle: carboxymethylcellulose (CMC)",105 % of control
same,T/C,"dose: 120.0 mg/kg/injection, schedule: Q01DX001 (ip), vehicle: saline",111 % of control
same,T/C,"dose: 240.0 mg/kg/injection, schedule: Q01DX001 (ip), vehicle: saline",156 % of control
C=COC(N)=O,T/C,"dose: 33.0 mg/kg/injection, schedule: Q01DX001 (ip), vehicle: saline",116 % of control
same,T/C,"dose: 50.0 mg/kg/injection, schedule: Q01DX001 (ip), vehicle: saline",117 % of control
same,T/C,"dose: 75.0 mg/kg/injection, schedule: Q01DX001 (ip), vehicle: saline",121 % of control
same,T/C,"dose: 113.0 mg/kg/injection, schedule: Q01DX001 (ip), vehicle: saline",111 % of control
O=C1OC(Cl)(C(Cl)(Cl)Cl)C(=O)OC1(Cl)C(Cl)(Cl)Cl (centres undefined),T/C,"dose: 100.0 mg/kg/injection, schedule: Q04DX003 (ip), vehicle: acetone",98 % of control
same,T/C,"dose: 200.0 mg/kg/injection, schedule: Q04DX003 (ip), vehicle: acetone",98 % of control
same,T/C,"dose: 400.0 mg/kg/injection, schedule: Q04DX003 (ip), vehicle: acetone",96 % of control
CCCCOP(=O)(/C=C(\C#N)C(=O)OCC)OCCCC,T/C,[3],87 % of control
same,T/C,[4],103 % of control
same,T/C,[5],98 % of control
N#CC12C(=N)CCC1C1C=CC2C1 (centres undefined),T/C,"dose: 6.25 mg/kg/injection, schedule: Q01DX009 (ip), vehicle: Klucel (hydroxypropylcellulose) (HPC)",100 % of control
same,T/C,"dose: 12.5 mg/kg/injection, schedule: Q01DX009 (ip), vehicle: Klucel (hydroxypropylcellulose) (HPC)",101 % of control
same,T/C,[3],89 % of control
same,T/C,[4],93 % of control
Cc1cc(OCCOC(=O)Nc2ccccc2C(F)(F)F)cc(C)c1Cl,T/C,"dose: 100.0 mg/kg/injection, schedule: Q04DX002 (ip), vehicle: Klucel (hydroxypropylcellulose) (HPC)",89 % of control
same,T/C,"dose: 200.0 mg/kg/injection, schedule: Q04DX002 (ip), vehicle: Klucel (hydroxypropylcellulose) (HPC)",101 % of control
same,T/C,"dose: 400.0 mg/kg/injection, schedule: Q04DX002 (ip), vehicle: Klucel (hydroxypropylcellulose) (HPC)",92 % of control
CCC(=O)Nc1cccc(OC(=O)NC(C)C)c1,T/C,[1],95 % of control
same,T/C,[2],90 % of control
